Laboratory results from patent US12097200B2, “Combination of BI853520 with chemotherapeutic drugs” (INXMED (NANJING) CO., LTD., priority 2020, dated 2024).
Values joined by “and” are separate entries in the source; they are usually repeats but may differ in a detail not shown here. Identical values can stand only once.

Experiments:
CTG-0252 = test: Antitumor activity in ovarian cancer PDX model CTG-0252; assay type: in vivo, mouse; details: 7 days until end of test, BI 853520 50 mg/kg PO BID, PLD 3 mg/kg IV q7d, carboplatin 25 mg/kg IP + paclitaxel 20 mg/kg IV q7d
Method: (§1) Body weights (at start of dosing) were approximately 20 grams. […] Immunocompromised female mice were housed in HEPA ventilated cages (Innocage® IVC, Innovive USA) at 68-74° F. (20-23° C.) and 30-70% humidity under a 12-hour light/12-hour dark cycle. […] Animals with >10% body weight loss compared to day 0 received DietAel 76A (ClearH2O®, Portland, ME) for free. There were 3 mice in each group.
(§2) Mice were implanted with tumor cells from the ChampionsTumorGraft® ovarian model, which was established from patients previously treated with platinum-based therapy. After tumors reached 1000-1500 mm^3, they were collected, and tumor fragments SCs were implanted in the left flank of female pre-study mice. Each study animal was implanted with a specific passage batch. Tumor volume was measured twice a week with calipers to monitor tumor growth, and tumor volume (TV) was calculated using the formula (0.52×[length×width^2]). […] After initiation of dosing, animals were weighed daily using a digital scale and TV was measured twice weekly. […]
(§3) Inhibitory effect on tumor growth was determined by calculating TGI (100%×[1−(final MTV−initial MTV of the treatment group)/(final MTV−initial MTV of the control group)]). […]
(§4) CR: no TV could be detected (<4×4 mm^2), in 2 consecutive measurements […]

CTG-0791 = test: Antitumor activity in ovarian cancer PDX model CTG-0791; assay type: in vivo, mouse; details: CTG-0791 (carboplatin and paclitaxel-resistant); 35 days until end of test; doses as Table 3
Method: as §1, §2, §3, §4

CTG-0868 = test: Antitumor activity in ovarian cancer PDX model CTG-0868; assay type: in vivo, mouse; details: 25 days until end of test, doses as Table 3
Method: as §1, §2, §3, §4

CTG-0956 = test: Antitumor activity in ovarian cancer PDX model CTG-0956; assay type: in vivo, mouse; details: CTG-0956 (carboplatin and paclitaxel-resistant); 67 days until end of test; doses as Table 3
Method: as §1, §2, §3, §4

CTG-0958 = test: Antitumor activity in ovarian cancer PDX model CTG-0958; assay type: in vivo, mouse; details: 52 days until end of test, doses as Table 3
Method: as §1, §2, §3, §4

CTG-1180 = test: Antitumor activity in ovarian cancer PDX model CTG-1180; assay type: in vivo, mouse; details: CTG-1180 (carboplatin and paclitaxel-resistant); 42 days until end of test; doses as Table 3
Method: as §1, §2, §3, §4

CTG-1602 = test: Antitumor activity in ovarian cancer PDX model CTG-1602; assay type: in vivo, mouse; details: 14 days until end of test, doses as Table 3
Method: as §1, §2, §3, §4

CTG-1624 = test: Antitumor activity in ovarian cancer PDX model CTG-1624; assay type: in vivo, mouse; details: 38 days until end of test, doses as Table 3
Method: as §1, §2, §3, §4

CTG-1677 = test: Antitumor activity in ovarian cancer PDX model CTG-1677; assay type: in vivo, mouse; details: 32 days until end of test, doses as Table 3
Method: as §1, §2, §3, §4

HS 746T cells = test: Antitumor activity in mouse xenograft model of human gastric cancer (HS 746T); assay type: in vivo; details: HS 746T xenograft, combination of both
From the text: For tumor volume, absolute values were used.
Appropriate statistical methods were used for evaluation.
HS 746T: Approximately 6 week old mice.

[1] = BI 853520 50 mg/kg qd, docetaxel 10 mg/kg q7d

Structure (SMILES): COc1cc(C(=O)NC2CCN(C)CC2)c(F)cc1Nc1ncc(C(F)(F)F)c(Oc2cccc3c2C(=O)N(C)C3)n1 [BI 853520, 2-fluoro-5-methoxy-4-[(4-(2-methyl-3-oxo-2,3-dihydro-1H-isoindole-4-oxy)-5-trifluoromethyl-pyrimidin-2-yl)amino]-N-(1-methyl-piperidin-4-yl)benzamide]
- TGI (%) (CTG-0252): 54%
- TGI (%) (CTG-0791): −21%
- TGI (%) (CTG-0868): 54%
- TGI (%) (CTG-0956): 77%
- TGI (%) (CTG-0958): 99%
- TGI (%) (CTG-1180): 33%
- TGI (%) (CTG-1602): −1%
- TGI (%) (CTG-1624): 22%
- TGI (%) (CTG-1677): 51%
- Median tumor volume (HS 746T cells; day 24 (withdrawal on day 28), BI 853520 50 mg/kg qd by gavage, docetaxel 10 mg/kg q7d i.v.): 229 mm^3
- Antitumor effect (in words) (HS 746T cells; [1]): had inhibitory effect
- Change in median body weight (HS 746T cells; [1]): 7.3%
- TGI (HS 746T cells; [1]): 93%
- Tumor regression (animals with regression/animals in group) (HS 746T cells; [1]): 1 of 8 and 1/8
